Active and inactive are the calls of the source. The rule behind the calls is not given here.
Experiments:
[1] = target: T1, Cholinesterase (Homo sapiens, UniProt P06276); assay: Inhibition of BChE (unknown origin) by Ellman's method
[2] = target: T2, Acetylcholinesterase (Homo sapiens, UniProt P22303); assay: Inhibition of AChE (unknown origin) by Ellman's method
[3] = target: T2, Acetylcholinesterase; assay: Inhibition of AChE (unknown origin) at 10 uM by Ellman's method
[4] = target: T1, Cholinesterase; assay: Inhibition of BChE (unknown origin) at 10 uM by Ellman's method
[5] = Stability of compound in PBS at pH 7.4 measured after 48 hrs by HPLC analysis; format: physicochemical; settings: buffer, pH 7.4, 48 h
[6] = system: BV-2; assay: Antiinflammatory activity in mouse BV-2 cells assessed as decrease in LPS-induced IL-1beta secretion at 10 uM preincubated for 6 hrs followed by LPS stimulation and measured after 24 hrs by qRT-PCR analysis (reference value: 3.76); format: functional; settings: time 30 hrs
[7] = system: PC-3; assay: Neuroprotective activity against Abeta42-induced cell death in […] cells by MTT assay; format: functional, cell-based; settings: dose 0.1-10 µM
[8] = system: BV-2; assay: Antiinflammatory activity in mouse BV-2 cells assessed as decrease in LPS-induced TNFalpha secretion at 5 uM preincubated for 6 hrs followed by LPS stimulation and measured after 24 hrs by qRT-PCR analysis (reference value: 3.91); format: functional; settings: time 30 hrs
[9] = system: BV-2; assay: Antiinflammatory activity in mouse BV-2 cells assessed as decrease in LPS-induced IL-1beta secretion at 5 uM preincubated for 6 hrs followed by LPS stimulation and measured after 24 hrs by qRT-PCR analysis (reference value: 3.76); format: functional; settings: time 30 hrs
[10] = target: T1, Cholinesterase; assay: Potency index, ratio of donepezil IC50 to test compound IC50 for BChE (unknown origin)
[11] = system: PC-3; assay: Cytotoxicity against […] cells assessed as reduction in cell viability at 0.1 to 10 uM by MTT assay; format: toxicity, cell-based; settings: dose 0.1-10 µM
[12] = system: BV-2; assay: Antiinflammatory activity in mouse BV-2 cells assessed as decrease in LPS-induced TNFalpha secretion at 10 uM preincubated for 6 hrs followed by LPS stimulation and measured after 24 hrs by qRT-PCR analysis (reference value: 3.91); format: functional; settings: time 30 hrs
[13] = target: T3, Prostaglandin G/H synthase 2 (Homo sapiens) (UniProt P35354); assay: Inhibition of COX-2 (unknown origin) by enzyme immunoassay
T3 sequence (whole entry): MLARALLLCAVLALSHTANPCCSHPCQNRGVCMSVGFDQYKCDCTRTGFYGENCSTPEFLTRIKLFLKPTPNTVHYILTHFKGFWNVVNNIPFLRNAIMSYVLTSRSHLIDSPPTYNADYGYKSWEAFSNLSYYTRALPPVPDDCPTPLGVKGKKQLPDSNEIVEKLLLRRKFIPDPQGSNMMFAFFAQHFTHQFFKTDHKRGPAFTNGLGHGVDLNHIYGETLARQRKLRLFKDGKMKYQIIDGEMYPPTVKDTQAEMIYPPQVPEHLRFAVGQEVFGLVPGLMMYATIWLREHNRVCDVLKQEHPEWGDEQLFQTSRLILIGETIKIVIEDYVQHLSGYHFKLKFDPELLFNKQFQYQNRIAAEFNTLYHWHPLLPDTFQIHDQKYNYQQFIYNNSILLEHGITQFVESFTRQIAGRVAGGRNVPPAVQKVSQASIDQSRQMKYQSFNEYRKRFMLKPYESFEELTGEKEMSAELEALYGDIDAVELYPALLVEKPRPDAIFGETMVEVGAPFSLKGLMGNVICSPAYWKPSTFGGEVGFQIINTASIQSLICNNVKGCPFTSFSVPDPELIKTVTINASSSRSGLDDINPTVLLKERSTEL

[14] = target: Prostaglandin G/H synthase 1 (Homo sapiens) (UniProt P23219); assay: Inhibition of COX-1 (unknown origin) by enzyme immunoassay
Prostaglandin G/H synthase 1 (Homo sapiens), sequence (P23219 whole entry): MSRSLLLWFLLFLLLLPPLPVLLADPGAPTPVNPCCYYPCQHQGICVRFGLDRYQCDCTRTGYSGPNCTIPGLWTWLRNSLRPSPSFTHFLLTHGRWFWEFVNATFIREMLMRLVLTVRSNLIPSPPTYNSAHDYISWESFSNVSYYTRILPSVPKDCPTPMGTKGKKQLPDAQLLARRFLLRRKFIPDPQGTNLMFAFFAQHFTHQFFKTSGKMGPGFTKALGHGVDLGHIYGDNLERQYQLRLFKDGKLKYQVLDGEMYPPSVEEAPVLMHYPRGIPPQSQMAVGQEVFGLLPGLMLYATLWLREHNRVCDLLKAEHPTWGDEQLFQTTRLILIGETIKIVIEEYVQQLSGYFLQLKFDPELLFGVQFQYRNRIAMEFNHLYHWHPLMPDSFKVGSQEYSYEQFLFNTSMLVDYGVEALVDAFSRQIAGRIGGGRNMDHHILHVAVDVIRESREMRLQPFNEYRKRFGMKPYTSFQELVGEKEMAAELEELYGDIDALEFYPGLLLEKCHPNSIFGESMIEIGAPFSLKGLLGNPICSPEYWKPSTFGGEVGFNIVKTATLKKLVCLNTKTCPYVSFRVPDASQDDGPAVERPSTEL

T1 sequence (P06276 whole entry): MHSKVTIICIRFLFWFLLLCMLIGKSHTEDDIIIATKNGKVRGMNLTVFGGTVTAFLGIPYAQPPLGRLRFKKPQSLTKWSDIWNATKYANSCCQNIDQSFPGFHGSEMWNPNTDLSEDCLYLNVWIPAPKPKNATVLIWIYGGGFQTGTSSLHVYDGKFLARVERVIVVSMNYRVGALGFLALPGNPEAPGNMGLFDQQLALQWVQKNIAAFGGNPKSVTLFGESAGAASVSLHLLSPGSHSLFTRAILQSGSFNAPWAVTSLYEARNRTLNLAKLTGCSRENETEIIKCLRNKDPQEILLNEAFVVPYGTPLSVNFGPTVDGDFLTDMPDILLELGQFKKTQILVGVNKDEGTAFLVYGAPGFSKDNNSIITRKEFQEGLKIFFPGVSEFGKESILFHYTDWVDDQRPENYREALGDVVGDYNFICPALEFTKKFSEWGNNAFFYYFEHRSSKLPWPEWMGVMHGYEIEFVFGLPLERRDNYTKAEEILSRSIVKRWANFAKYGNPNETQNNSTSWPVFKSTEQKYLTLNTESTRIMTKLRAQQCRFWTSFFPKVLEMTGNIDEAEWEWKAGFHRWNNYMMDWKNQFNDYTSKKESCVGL
T2 sequence (P22303 whole entry): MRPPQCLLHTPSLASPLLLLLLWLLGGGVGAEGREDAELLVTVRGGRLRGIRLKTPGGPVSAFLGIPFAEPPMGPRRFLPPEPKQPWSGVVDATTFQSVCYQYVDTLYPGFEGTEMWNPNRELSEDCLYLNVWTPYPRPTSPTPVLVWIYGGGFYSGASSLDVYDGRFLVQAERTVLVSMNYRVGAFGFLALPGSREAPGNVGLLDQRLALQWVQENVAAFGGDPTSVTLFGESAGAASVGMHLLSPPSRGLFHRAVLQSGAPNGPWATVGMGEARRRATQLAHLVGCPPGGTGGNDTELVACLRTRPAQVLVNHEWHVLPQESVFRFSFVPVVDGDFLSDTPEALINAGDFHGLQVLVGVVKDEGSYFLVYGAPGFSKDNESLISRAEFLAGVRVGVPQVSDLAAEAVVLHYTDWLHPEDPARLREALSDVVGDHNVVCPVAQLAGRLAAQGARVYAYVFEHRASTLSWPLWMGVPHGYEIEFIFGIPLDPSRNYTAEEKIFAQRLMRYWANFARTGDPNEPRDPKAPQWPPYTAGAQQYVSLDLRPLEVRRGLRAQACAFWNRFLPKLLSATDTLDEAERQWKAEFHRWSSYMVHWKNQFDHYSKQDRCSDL

Compound	IC50 [1]	IC50 [2]	further results
COc1ccc2c(c1)c(CC(=O)N/N=C1\c3cc(OC)c(OC)cc3CC1CC1CCN(Cc3ccccc3)CC1)c(C)n2C(=O)c1ccc(Cl)cc1 (centres undefined)	8.53 µM	0.51 µM	–
CC(C)Cc1ccc(C(C)C(=O)O)cc1 (centres undefined)	–	–	inhibition [3]: inactive; inhibition [4]: inactive
COc1cc2c(cc1OC)/C(=N\NC(=O)c1ccccc1OC(C)=O)C(CC1CCN(Cc3ccccc3)CC1)C2 (centres undefined)	0.8 µM	0.046 µM	–
COc1ccc2c(c1)c(CC(=O)O)c(C)n2C(=O)c1ccc(Cl)cc1	–	–	inhibition [3]: inactive; inhibition [4]: inactive
COc1cc2c(cc1OC)/C(=N\N)C(CC1CCN(Cc3ccccc3)CC1)C2 (centres undefined)	2.54 µM	0.19 µM	–
COc1cc2c(cc1OC)/C(=N\NC(=O)CCNC(=O)C(C)c1ccc(CC(C)C)cc1)C(CC1CCN(Cc3ccccc3)CC1)C2 (centres undefined)	11.6 µM	4.85 µM	–
COc1cc2c(cc1OC)/C(=N\NC(=O)C(C)c1ccc(CC(C)C)cc1)C(CC1CCN(Cc3ccccc3)CC1)C2 (centres undefined)	0.8 µM	0.015 µM	Stability [5]: Stable; Activity [6]: 0.78; Activity [7]: Dose-Dependent Effect; Activity [8]: 1.51; Activity [9]: 1.19; Ratio IC50 [10]: 5; Activity [11]: Non-Toxic; Activity [12]: 1.12; inhibition [13]: Dose-Dependent Effect; inhibition [14]: Dose-Dependent Effect
COc1cc2c(cc1OC)/C(=N\NC(=O)C(CC(C)C)NC(=O)C(C)c1ccc(CC(C)C)cc1)C(CC1CCN(Cc3ccccc3)CC1)C2 (centres undefined)	20.2 µM	0.35 µM	–
COc1cc2c(cc1OC)/C(=N\NC(=O)C(NC(=O)C(C)c1ccc(CC(C)C)cc1)C(C)C)C(CC1CCN(Cc3ccccc3)CC1)C2 (centres undefined)	3.23 µM	0.4 µM	–
COc1ccc2cc([C@H](C)C(=O)N/N=C3\c4cc(OC)c(OC)cc4CC3CC3CCN(Cc4ccccc4)CC3)ccc2c1 (some centres undefined)	0.88 µM	0.15 µM	–
CC(=O)Oc1ccccc1C(=O)O	–	–	inhibition [3]: inactive; inhibition [4]: inactive
COc1cc2c(cc1OC)/C(=N\NC(=O)CNC(=O)C(C)c1ccc(CC(C)C)cc1)C(CC1CCN(Cc3ccccc3)CC1)C2 (centres undefined)	1.64 µM	1.19 µM	–

— ChEMBL document CHEMBL5223116, “Combination of NSAIDs with donepezil as multi-target directed ligands for the treatment of Alzheimer's disease” (Bioorg Med Chem Lett, 2022)
